Results published in PMC10272835, “Exploration of T cell immune responses by expression of a dominant-negative SHP1 and SHP2” (Frontiers in Immunology, 2023).

What was measured:
[1] = test system: tumor cell lines (SupT1, Nalm6, Raji, Skov3, CHLA, H446); assay: Upregulation of endogenous PDL1 by IFNγ; type: cell-based; conditions: IFNγ 10-400 ng/ml, 24 hours; flow cytometry
Procedure: In order to assess the effect of upregulation of endogenous PDL1 on tumour cells, cell lines were incubated for 24 hours with increasing amounts of IFNγ (10, 20, 40, 60, 80, 100, 200, 400 ng/ml) and PDL1 levels were assessed by flow cytometry.
(§1) SupT1 Nalm6 Raji Skov3 CHLA H446
(§2) Supplementary Figure 4: Effect of endogenous PDL1: A) Tumor cell lines were treated with […]
(§3) for PDL1 expression. B-D) The indicated tumor cell lines were treated with 100ng/ml IFNγ for 24 hours or left untreated following which 2x10^5 tumor cells were co-cultured with the indicated CAR T cells at an effector:target ratio of 1:1 for 48 hours (Skov3-GD2) or 96 hours (H446, CHLA255) and tumor cell killing assessed by flow cytometry and normalised to respective co-cultures with non-transduced (NT) T cells (100%). Points represent individual […]

[2] = test system: Skov3-GD2, H446, CHLA255 cells; assay: Target cell killing after IFNγ treatment; type: cell-based; conditions: 100ng/ml IFNγ 24 hours; E:T 1:1, 48 hours (Skov3-GD2) or 96 hours (H446, CHLA255)
Procedure: as §1, §2, §3

SupT1-GD2 cells = assay: Effect of inhibitory ligand expression on GD2 CAR cytotoxicity; type: cell-based; conditions: ligand expressed on SupT1-GD2, E:T 1:4 and 1:8, 6 days
Procedure: (§4) Transduced T cells were depleted of CD56 cells using the EasySep Human CD56 positive selection kit (Stemcell Technologies; 17855) and rested for 24 hours. Transduced cells were co-cultured with target cells at the indicated effector: target (E:T) ratios with target cells remaining constant at the indicated number of target cells/co-culture. At the end of the co-culture period target cells were enumerated by flow cytometry and cytotoxicity calculated as a percentage of the number of target cells recovered from co-cultures with non-transduced (NT) T cells.
Figure 3 Interaction of dSHP2 with immunoinhibitory T cell receptors. (A-E) Binding of dSHP2 to phosphorylated peptides derived from the endodomains of immunoinhibitory T cell receptors. Plates were coated with phosphorylated or non-phosphorylated peptide at the indicated concentration and the purified, His-tagged SH2 domains of dSHP2 were allowed to bind overnight. Binding was measured through detection of the His tag. (F) Effect of inhibitory ligand expression on target cells on CAR T cytotoxicity. […] Supernatants were harvested from these co-cultures and levels of IFNγ measured by ELISA (I). […] Statistical significance was measured by two-way ANOVA. […]

SHP2 = test system: SHP2; set-up: method as in PMID 30972278; conditions: following activation; ref [29]; cited from earlier work
SupT1-GD2-PDL1 cells [3] = assay: CAR T cytotoxicity, dSHP2 versus Pembrolizumab; type: cell-based; conditions: Pembrolizumab 2.5, 5, 10 µg/mL, E:T 1:8, 72 hours, 3-6 replicates
Procedure: as §4
(§5) Supplementary Figure 6: Comparison of dSHP2 with Pembrolizumab. A) T cells expressing RQR8 and the GD2 CAR alone or in combination with PD1 and/or dSHP2 were incubated with 1x10^5 SupT1 cells lacking antigen expression (SupT1-NT) or engineered to express GD2 alone (SupT1-GD2) or in the presence of PDL1 (SupT1-GD2-PDL1) at an effector:target ratio of 1:8 for 72 hours. Pembrolizumab was included in co-cultures with T cells expressing PD1 and the GD2 CAR at the indicated concentrations. Surviving target cells were enumerated and normalized to the respective co-cultures with non-transduced T cells (100%). B) Supernatants from co-cultures in (A) were analyzed for IFNγ by ELISA. C-D) T cells were labelled with Cell Trace Violet and co-cultured with 2x10^5 SupT1 target cells at an E:T ratio of 1:4 for 5 days and CAR T cells enumerated. […]

[4] = test system: SupT1-GD2-PDL1 target cells; assay: IFNγ release, dSHP2 versus Pembrolizumab; type: cell-based; conditions: GD2 CAR; Pembrolizumab 2.5, 5, 10 µg/mL; E:T 1:8, 72 hours
Procedure: as §5, with “enumerated. Bars represent the mean of 3-6 biologically independent replicates.” for “enumerated.”

[5] = test system: CAR T cells with SupT1-GD2-PDL1 target cells; assay: CAR T proliferation, dSHP2 versus Pembrolizumab; type: cell-based; conditions: Pembrolizumab 2.5, 5, 10 µg/mL, E:T 1:4, 5 days
Procedure: PBMCs were labelled with Cell Trace Violet (CTV) according to manufacturer’s instructions (ThermoFisher Scientific; C34557) and cultured with 0.5x10^5 target cells at 1:1 E:T ratio for 96 hours. Numbers of CD3^+ RQR8+ T cells and CTV MFI were assessed by flow cytometry.
as §5, with “enumerated. Bars represent the mean of 3-6 biologically independent replicates.” for “enumerated.”

SHP2 (PTPN11) gene = assay: SHP2 gene disruption (ICE); type: cell-based; conditions: Cas9 RNP nucleofection of T cells, after 6 days; 4 donors
Procedure: (§6) Expression of the SHP2 (PTPN11) gene was disrupted by Cas9-mediated indel formation. For each sgRNA, 2 samples of 5x10^6 PBMCs were nucleofected in […] of P3 buffer (Lonza; V4XP-3024) with 125 pmol of Alt-R Sp HiFi Cas 9 nuclease v3 (IDT; 108210621) complexed with 187.5 pmol of the PTPN11 sgRNA ([…]) or a non-targeting sgRNA ([…]; Synthego) using pulse code EH-115. Complexing of Cas9 and the sgRNA was carried out at ambient temperature for 10 minutes prior to nucleofection. […] PBMCs were transduced with retroviral constructs 24 hours after nucleofection. PBMCs were collected for genotyping, Western blotting and functional assessment 6 days after nucleofection.
Genomic DNA was extracted from PBMCs using the GenElute Blood Genomic DNA Kit (Sigma; NA2010) according to the manufacturer’s instructions. The sequence flanking the SHP2 sgRNA target site was amplified by PCR from 100 ng of genomic DNA using Q5 DNA polymerase (NEB; M0491L) and the primers, SHP2_forward 5’-[…]-3’ and SHP2_reverse 5’-[…]-3’ (IDT). The PCR products were Sanger sequenced (Source Bioscience) and indel formation and knockout efficiencies determined by ICE (Synthego), comparing SHP2-edited and non-target-edited sequences to an unedited control.

SHP2 protein = assay: Western blot of SHP2 after gene disruption; type: cell-based; conditions: after 6 days, 4 donors
Procedure: as §6
Cells were stimulated as indicated then 0.5x10^6 cells were harvested and pelleted at 400xg for 2 minutes. The pellets were washed with ice-cold PBS, centrifuged as before and lysed in 50μl of 1x RIPA buffer (Millipore) supplemented with 1x protease and phosphatase inhibitor (Abcam). The cells were incubated on ice for 15 minutes, vortexed and incubated for further 15 minutes. The lysate was clarified by centrifuging the cells at 13000xg for 10 minutes at 4°C, protein concentration was determined using the BCA Protein assay Kit (Pierce) and stored at -80°C until use. Prior to gel electrophoresis lysates were mixed with NuPAGE™ LDS Sample Buffer (4X) (Invitrogen™) and heated at 95°C for 10 minutes. […]

SupT1-GD2-PDL1 cells [6] = assay: CAR T cytotoxicity, dSHP2 versus SHP2 knock-out; type: cell-based; conditions: GD2 CAR alongside PD1
Procedure: as §4, §6
Supplementary Figure 5: Comparison of dSHP2 expression with genomic excision of SHP2. […]

IFNγ: exogenous IFNγ used to upregulate PDL1 on tumor cell lines
PDL1 upregulation [1]: did upregulate PDL1 in some cell lines
target cell killing with exogenous IFNγ [2]: increased target cell killing

CD80: inhibitory ligand of CTLA4 expressed on SupT1-GD2 cells
effect of target cell ligand expression on CAR T cytotoxicity (SupT1-GD2 cells): mild enhancement of CAR T cytotoxicity

CC1(N)CCN(c2cnc(-c3cccc(Cl)c3Cl)c(N)n2)CC1 [SHP099]
effect on central memory population, effector molecule expression (SHP2): increased central memory population and increased expression of granzyme B, perforin, IFNγ, TNFα and FasL
effect on proliferation or viability (SHP2): no effect on proliferation or viability

pembrolizumab: antibody blocking PD1
restoration of killing, compared with Pembrolizumab (SupT1-GD2-PDL1 cells [3]): comparable effects
restoration of IFNγ release, compared with Pembrolizumab [4]: slightly greater restoration of IFNγ secretion at the highest concentration
restoration of proliferation, compared with Pembrolizumab [5]: comparable effects

SHP2-directed sgRNA: PTPN11 sgRNA (GAGACUUCACACUUUCCGUU) complexed with Cas9 nuclease (complexed with Cas9 nuclease, further chemistry not given here)
indel formation (SHP2 (PTPN11) gene): greater than 80%
SHP2 protein level (SHP2 protein): significant decrease in SHP2 protein
relief of PDL1-mediated inhibition of CAR T cells (SupT1-GD2-PDL1 cells [6]): substantially less
